Laboratory results from ChEMBL document CHEMBL1129256, “Potent thrombin inhibitors that probe the S1 subsite: tripeptide transition state analogues based on a heterocycle-activated carbonyl group” (J Med Chem, 1996).

Experiments:
Serine protease 1 = target: T1, Serine protease 1 (Bos taurus, UniProt P00760); test: Inhibition of bovine trypsin
T1 sequence (P00760 whole entry): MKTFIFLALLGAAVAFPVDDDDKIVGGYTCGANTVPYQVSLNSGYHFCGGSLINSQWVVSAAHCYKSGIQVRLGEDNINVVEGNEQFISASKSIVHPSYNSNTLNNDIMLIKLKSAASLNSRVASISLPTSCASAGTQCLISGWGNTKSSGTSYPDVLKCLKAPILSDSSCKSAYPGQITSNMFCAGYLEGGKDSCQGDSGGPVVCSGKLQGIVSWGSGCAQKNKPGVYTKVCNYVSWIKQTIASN

Prothrombin = Prothrombin (Homo sapiens, UniProt P00734); test: Inhibition of human alpha-thrombin.
Bos taurus = species on record: Bos taurus; test: Inhibition of trypsin, selectivity with respect to thrombin
[1] = Compound was tested for inhibition of activated protein C. selectivity with respect to thrombin
[2] = Compound was tested for inhibition of plasmin, selectivity with respect to thrombin
[3] = Compound was tested for inhibition of streptokinase (SK). selectivity with respect to thrombin
[4] = Compound was tested for inhibition of tissue-type plasminogen activator (tissue plasminogen activator), selectivity with respect to thrombin

Ki (Serine protease 1) [nM] | Ki (Prothrombin) [nM] | Selectivity (Bos taurus) | SMILES | further results
1.6 | 3.6 | – | CN[C@H](Cc1ccccc1)C(=O)N1CCC[C@H]1C(=O)N[C@@H](CCCNC(=N)N)C(=O)c1nccs1 | –
38 | 12 | – | CN[C@H](Cc1ccccc1)C(=O)N1CCC[C@H]1C(=O)N[C@@H](CCCNC(=N)N)C(=O)c1nc2ccccc2[nH]1 | –
– | – | 0.4 | CN[C@H](Cc1ccccc1)C(=O)N1CCC[C@H]1C(=O)N[C@@H](CCCN=C(N)N)C(=O)c1nccs1 | –
– | – | 0.39 | CN[C@H](Cc1ccccc1)C(=O)N1CCC[C@H]1C(=O)N[C@H](C=O)CCCNC(=N)N | Selectivity [1]: 72; Selectivity [2]: 33; Selectivity [3]: 170; Selectivity [4]: 130
4400 | 50 | – | CN[C@H](Cc1ccccc1)C(=O)N1CCC[C@H]1C(=O)N[C@@H](CCCN=C(N)N)C(=O)c1nccn1C | –
– | – | 3.2 | CN[C@H](Cc1ccccc1)C(=O)N1CCC[C@H]1C(=O)N[C@@H](CCCN=C(N)N)C(=O)c1nc2ccccc2[nH]1 | –
– | – | 1.3 | CN[C@H](Cc1ccccc1)C(=O)N1CCC[C@H]1C(=O)N[C@@H](CCCN=C(N)N)C(=O)c1nc2c(s1)CCCC2 | –
4.4 | 3.4 | – | CN[C@H](Cc1ccccc1)C(=O)N1CCC[C@H]1C(=O)N[C@@H](CCCNC(=N)N)C(=O)c1nc2c(s1)CCCC2 | –
> 150000 | 5300 | – | Cc1ccc(S(=O)(=O)NC(=N)NCCC[C@H](NC(=O)[C@@H]2CCCN2C(=O)[C@@H](Cc2ccccc2)N(C)C(=O)OCc2ccccc2)C(O)c2nc3ccccc3s2)cc1 (some centres undefined) | –
73 | 85 | 0.8 | CN[C@H](Cc1ccccc1)C(=O)N1CCC[C@H]1C(=O)N[C@@H](CCCNC(=N)N)C(=O)c1ccccn1 | –
8.2 | 15 | 0.6 | CN[C@H](Cc1ccccc1)C(=O)N1CCC[C@H]1C(=O)N[C@@H](CCCN=C(N)N)C(=O)C1=NC(=O)C2C=CC=CC2=N1 (some centres undefined) | –
– | 0.19 | 16 | CN[C@H](Cc1ccccc1)C(=O)N1CCC[C@H]1C(=O)N[C@@H](CCCN=C(N)N)C(=O)c1nc2ccccc2s1 | Selectivity [1]: 19000; Selectivity [2]: 12000; Selectivity [3]: 6300; Selectivity [4]: 3300
2.9 | 3.8 | 0.8 | CN[C@H](Cc1ccccc1)C(=O)N1CCC[C@H]1C(=O)N[C@@H](CCCN=C(N)N)C(=O)c1nc2ccccc2o1 | –
– | – | 88 | CN[C@H](Cc1ccccc1)C(=O)N1CCC[C@H]1C(=O)N[C@@H](CCCNC(=N)N)C(=O)c1nccn1C | –
> 150000 | 16000 | – | Cc1ccc(S(=O)(=O)N/C(N)=N\CCC[C@@H](NC(=O)[C@H]2CCCN2C(=O)[C@H](Cc2ccccc2)N(C)C(=O)OCc2ccccc2)C(O)c2nc3ccccc3s2)cc1 (some centres undefined) | –

SMILES | Ki (Serine protease 1) [nM] | Ki (Prothrombin) [nM] | Selectivity (Bos taurus) | further results
CN[C@H](Cc1ccccc1)C(=O)N1CCC[C@H]1C(=O)N[C@@H](CCCNC(=N)N)C(=O)c1nc2ccccc2n1C | 290 | 8.1 | 36 | –
